Data taken from patent publication US20260250318A1, “COMPOSITIONS AND METHODS FOR CROSSING THE BLOOD BRAIN BARRIER” (VOYAGER THERAPEUTICS, INC., priority 2022, published 2026).

Key:
Conditions in all cases: synthetic library passage 3, intravenous, relative to wild-type AAV9
[1] = tested on: brain; experiment: NGS fold enrichment of synthetic library (passage 3) in BALB/c mice, first cross-species screen; type: in vivo
Summary of the method: (§1)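 Fold enrichment versus wild-type AAV9 was derived by NGS of RT-PCR-amplified RNA from nervous tissue, collected e.g. 28 days after IV dosing […]. The library (passage 3) was given to two NHPs aged 2-4 years and to 6-8-week BALB/c and C57Bl/6 mice (n=3 each).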

[2] = tested on: brain, spinal cord, and DRG of the NHPs; experiment: NGS fold enrichment of synthetic library (passage 3) in NHPs, first cross-species screen; type: in vivo, cynomolgus macaques (Macaca fascicularis)
Summary of the method: as §1

[3] = tested on: brain; experiment: NGS fold enrichment of synthetic library (passage 3) in C57Bl/6 mice, first cross-species screen; type: in vivo
Summary of the method: as §1

[4] = RNA from brain of BALB/c mice, NGS
[5] = RNA from spinal cord of NHPs, NGS
[6] = RNA from brain of C57Bl/6 mice, NGS

Sequence	Fold enrichment over AAV9 in the brain of Mice (BALB/c) [1, 4]	Fold enrichment over AAV9 in the brain of NHPs ([2]; RNA from brain of NHPs, NGS)	Fold enrichment over AAV9 in the spinal cord of NHPs [2, 5]	Fold enrichment over AAV9 in the brain of Mice (C57Bl/6) [3, 6]	Fold enrichment over AAV9 in the brain of Mice (BALB/c) ([1]; RNA NGS, brain of BALB/c mice)	Fold enrichment over AAV9 in the brain of NHPs ([2]; RNA NGS, brain of NHPs)	Fold enrichment over AAV9 in the spinal cord of NHPs ([2]; RNA NGS, spinal cord of NHPs)	Fold enrichment over AAV9 in the brain of Mice (C57Bl/6) ([3]; RNA NGS, brain of C57Bl/6 mice)
GSGQNSGVHFNQQT	0.377 fold	1.268 fold	0.587 fold	0.871 fold	–	–	–	–
GVVAAHNSGQNQQT	–	–	–	–	1.336 fold	2.202 fold	1.301 fold	1.196 fold
GSGQNQQTGMSSVK	–	–	–	–	0.679 fold	2.109 fold	4.544 fold	1.451 fold
GSGQNQQHPSTQQT	0.680 fold	1.205 fold	1.552 fold	1.017 fold	–	–	–	–
GPASLPISGQNQQT	0.155 fold	1.386 fold	9.008 fold	0.312 fold	–	–	–	–
GSGSPHVRMQNQQT	–	–	–	–	10.076 fold	11.574 fold	6.764 fold	9.121 fold
GSGRHLASVQNQQT	0.606 fold	1.187 fold	1.024 fold	0.654 fold	–	–	–	–
GSGQNQQTSVSQQT	0.913 fold	1.342 fold	1.614 fold	1.030 fold	–	–	–	–
GSGQRRELSQNQQT	0.396 fold	1.215 fold	1.791 fold	0.622 fold	–	–	–	–
GSGQYANHGINQQT	–	–	–	–	0.701 fold	1.820 fold	5.717 fold	0.906 fold
GSGMPQSHIQNQQT	–	–	–	–	0.334 fold	3.289 fold	11.609 fold	0.514 fold
GSGQTHGGQHNQQT	–	–	–	–	1.098 fold	2.125 fold	12.251 fold	1.448 fold
GSGQNQYSQSSMQT	–	–	–	–	0.309 fold	1.494 fold	4.278 fold	0.375 fold
GSGQAAKSSQNQQT	–	–	–	–	0.737 fold	1.036 fold	0.681 fold	0.778 fold
GSGQKMWKLDNQQT	1.418 fold	1.341 fold	0.000 fold	0.990 fold	–	–	–	–
GSGQNQQTNRGNPM	–	–	–	–	1.098 fold	1.860 fold	3.402 fold	1.349 fold

Sequence	Fold enrichment over AAV9 in the brain of Mice (BALB/c) [1, 4]	Fold enrichment over AAV9 in the brain of NHPs ([2]; RNA from brain of NHPs, NGS)	Fold enrichment over AAV9 in the spinal cord of NHPs [2, 5]	Fold enrichment over AAV9 in the brain of Mice (C57Bl/6) [3, 6]	Fold enrichment over AAV9 in the brain of Mice (BALB/c) ([1]; RNA NGS, brain of BALB/c mice)	Fold enrichment over AAV9 in the brain of NHPs ([2]; RNA NGS, brain of NHPs)	Fold enrichment over AAV9 in the spinal cord of NHPs ([2]; RNA NGS, spinal cord of NHPs)	Fold enrichment over AAV9 in the brain of Mice (C57Bl/6) ([3]; RNA NGS, brain of C57Bl/6 mice)
GSGQNQQTLYSSNT	–	–	–	–	0.368 fold	1.642 fold	1.044 fold	0.664 fold
GSGQNQHSVHNDQT	–	–	–	–	0.515 fold	1.428 fold	0.000 fold	0.521 fold
GSGQNQQTSPRLQT	–	–	–	–	1.091 fold	1.100 fold	0.795 fold	1.156 fold
GSGPILGQLQNQQT	–	–	–	–	0.123 fold	2.097 fold	2.058 fold	0.470 fold
GSGSPHARMQNQQT	–	–	–	–	4.164 fold	56.138 fold	22.690 fold	7.795 fold
GSGQNQQLSGKSVT	–	–	–	–	0.930 fold	1.070 fold	1.524 fold	1.276 fold
GSGQNQQVHLSTGT	–	–	–	–	0.455 fold	1.811 fold	0.266 fold	1.011 fold
GSGLRTMTTQNQQT	–	–	–	–	0.594 fold	1.900 fold	8.939 fold	0.838 fold
GRLSNAHGGQNQQT	0.725 fold	1.245 fold	0.839 fold	1.036 fold	–	–	–	–
GGITWTDSGQNQQT	–	–	–	–	0.468 fold	1.462 fold	4.535 fold	1.472 fold
GSGQNQQPSLRQST	0.554 fold	1.356 fold	2.905 fold	1.315 fold	–	–	–	–
GSGQNAGSFPNQQT	–	–	–	–	0.286 fold	1.928 fold	12.575 fold	1.091 fold
GSVHMQNAGQNQQT	–	–	–	–	0.625 fold	1.034 fold	3.608 fold	1.004 fold
GSGSPQASRQNQQT	0.542 fold	1.189 fold	6.782 fold	0.923 fold	–	–	–	–
GSSTRVDSGQNQQT	–	–	–	–	0.660 fold	1.584 fold	2.774 fold	0.704 fold
GSGHMSDLRQNQQT	–	–	–	–	0.328 fold	1.073 fold	4.291 fold	0.555 fold
